“Also recorded” adds a separate entry of the source.

For one experiment, the system named is C. jejuni NCTC 11168. In words: ELISA of C. jejuni binding to histo-blood group antigens (BgAgs). Particulars: for binding of C. jejuni to Le^b and H-II after growth in medium with Fe-QA: washed away before ELISA, one and four passages. Also noted: species or system Campylobacter jejuni. The method, then:
Binding of C. jejuni NCTC 11168 to the BgAgs (common ABO histo-blood group antigens), Le^b and H-II was measured after growing the bacteria in a medium that has either Fe-QA at 0.34 mM or 3.4 mM. The binding is measured by washing away the Fe-Q containing medium prior to testing the bacteria by ELISA as described below. Binding was measured after one passage and four passages (4 generations) with Fe-QA included in the medium, and compared to a control without Fe-QA.
The ELISA was performed as follows: BSA-BgAg conjugates were obtained from IsoSep, Tullinge, Sweden. Coupling of BgAgs to 96-well plates (NUNC Immobilizer Amino) was carried out by the addition of 100 μl BSA-BgAg (5 μg/ml unless stated otherwise) in sodium carbonate buffer to each well. Plates were incubated at room temperature for 2 h before unbound reagent was removed by washing three times in PBS-T. All wells were blocked by the addition of […] 1% BSA/PBS and incubated for 2 h at room temperature. After further washing in PBS-T, […] of DIG-tagged bacteria (at OD600 of 0.05) were added to each well and incubated overnight at 4° C. Plates were washed three times in PBS-T before […] anti-digoxigenin-POD solution (Roche Diagnostics; 1 in 5000 diluted in 1% BSA/PBS) was added and incubated for 1 h at room temperature. Plates were again vigorously washed in PBS-T and color developed by adding 100 μl ABTS substrate (Roche). Plates were read with an ELISA reader (Biotek EL800) at an absorbance of 405 nm. Specific binding was determined by subtracting the binding of each strain to BSA (typically OD405 0.07-0.09) from the binding to each BSA-BgAg conjugate. Inhibition assays shown in FIG. 4B were carried out as above but after the removal of the blocking solution, DIG-labeled C. jejuni was pre-incubated for 4 h with an Fe-QA solution (0.34 mM) before being added to each well.
For orientation: In an ELISA, binding on a coated surface is turned into a signal by an enzyme label.

For another experiment, the system named is Pseudomonas aeruginosa. Put plainly: Planktonic growth rate in RPMI-1640. Format: cell-based. The settings on record: Fe-QA 100 μM. The protocol:
(§1) The growth rate of Uropathogenic E. coli UPEC-536 in RPMI-1640 media over a period of 24 hours was compared to the growth rate of UPEC in RPMI-1640 media, but in the presence of 100 μM Fe-QA. The growth rate of Pseudomonas aeruginosa in RPMI-1640 media was also compared to the growth rate of Pseudomonas aeruginosa in RPMI-1640 media, but in the presence of 100 μM Fe-QA.

Experiment [1] has as its system Psuedomonas aeruginosa (PAO1N). Put plainly: Growth (OD600) in LB with Amikacin, tolerance to antibiotic. Format: cell-based, Pseudomonas aeruginosa. The settings on record: 34, 100, 200 and 340 μM of FeQ or FePhe; Amikacin 10 µg/ml; 17.5 hours at 37° C. The method, then:
(§2) To investigate effects upon antibiotic resistance, a laboratory strain of Psuedomonas aeruginosa (PAO1N) and a mixed population of clinical isolates (PAO Mixed) were incubated in Luria-Bertani (LB) media alone, or with different concentrations (34 μM, 100 μM, 200 μM and 340 μM) of FeQ or FePhe.
(§3) Each of the different media, bar one control, contained 10 µg/ml of the aminoglycoside antibiotic Amikacin.
(§4) 10 μl of the bacterial strains were added into each well of a 96-well micro-titer plate, before 290 μl of the relevant media was added to wells. Each different condition was repeated in sextuplicate.
(§5) The plate was incubated at 37° C. within a micro-titer plate reader for 17.5 hours, with the OD600 read every 30 minutes.

Experiment [2] concerns mixed population of clinical isolates (PAO Mixed). The description is as above. Format: cell-based, Pseudomonas aeruginosa. The settings on record: 34, 100, 200 and 340 μM of FeQ or FePhe; Amikacin 10 µg/ml; 17.5 hours at 37° C. The method, then:
as §2, §3, §4, §5

For experiment [3], the system named is Campylobacter jejuni NCTC 11168 (wildtype and strain carrying a kanamycin resistance gene). Put plainly: Patch test on growth plates with Fe-QA and kanamycin. Format: cell-based. From the text:
The wildtype C. jejuni grew normally, and was not affected by FeQ. A patch was also immersed in a solution of kanamycin and Fe-QA, and placed on a growth plate of wildtype C. jejuni. The growth of C. jejuni was impacted showing that wildtype C. jejuni is sensitive to the presence of kanamycin.
The patch experiments were repeated with a Campylobacter jejuni NCTC 11168 strain carrying a kanamycin resistance gene wherein patches were immersed in (i) kanamycin only, (ii) Fe-QA only, and (iii) kanamycin and Fe-QA. The growth of the C. jejuni strain carrying the kanamycin resistance gene was not impacted by the patches immersed in (i) kanamycin and (ii) Fe-QA, however, the growth was impacted by the patch that was immersed in both kanamycin and Fe-QA.

The subject of experiment [4] is Uropathogenic E. coli UPEC-536. Put plainly: Planktonic growth rate in RPMI-1640. The settings on record: Fe-QA 100 μM, 24 hours. Format: cell-based, Escherichia coli. The method, then: as §1
For experiment [5], the system named is bacterial flora present in the mouth. Put plainly: Biofilm formation on extracted human teeth (CEPLAC staining). Particulars: FeQ 340 μM; 48 hours of culturing. Format: cell-based. The protocol:
Molar teeth were extracted from human patients, and mouth swabs taken from each patient to obtain samples of each patient's bacterial flora present in the mouth. The mouth swabs were cultured in the laboratory using LB media in order to grow bacterial populations ordinarily present in the mouth of each patient. The extracted teeth were washed and brushed extensively using PBS buffer and ethanol. Each patient's tooth was then placed in the bacterial culture prepared from that patient's bacterial flora sample, and cultured aerobically for 24 hours in LB media. The teeth were then stained with CEPLAC™ (Manx Healthcare Ltd, Warwick, UK), and washed three times with PBS-Tween (50 mL) to determine if biofilm had been formed on the teeth.
All teeth stained red indicating the presence of biofilm on the teeth after just 24 hours. The same teeth were then cleaned using PBS buffer and ethanol, and the procedure repeated except with 48 hours of culturing in the presence of FeQ (340 μM).

The nature of experiment [6]: Treatment of an acne patient. Format: in vivo, human. The protocol: A patient was treated continuously for 30 days by applying a solution of ferric quinate (340 μM) to their acne vulgarism (“acne”) once each day. Within 5 days of the start of treatment, their acne, which had not previously responded to treatment with antibiotics, began to show signs of healing.

Regarding `O=C1[O][Fe]23([O]C(=O)[C@]4(C[C@@H](O)[C@H](O)[C@H](O)C4)[O]2)([O]C(=O)[C@]2(C[C@@H](O)[C@H](O)[C@H](O)C2)[O]3)[O][C@@]12C[C@@H](O)[C@H](O)[C@H](O)C2` [FeQ, a complex of quinic acid with Fe III], the “binding of C. jejuni to Le^b and H-II after growth in medium with Fe-QA” value is listed as “statistically significant decrease” in the experiment with C. jejuni NCTC 11168 (Fe-QA 0.34 mM in medium) and “marked decrease in binding” in the experiment on C. jejuni NCTC 11168 (Fe-QA 3.4 mM in medium). In the experiment on C. jejuni NCTC 11168 (bacteria pre-incubated 4 h with Fe-QA 0.34 mM), the “inhibition of binding of C. jejuni 11168 to BgAgs (Core-I, Core-II, H-I, H-II, Leb, Ley, Lex)” value is recorded as “significant inhibition of binding”. The planktonic growth rate entry (in the experiment with Pseudomonas aeruginosa; in experiment [4]) was “does not inhibit the growth” in each case. Further, the “tolerance to the aminoglycoside Amikacin (OD600 growth)” value in experiment [1] and in experiment [2] was “reducing tolerance” in each case. In addition, the “growth on plate around patch” value in experiment [3] (strain carrying kanamycin resistance gene, patch with Fe-QA only) was “not impacted”; in experiment [3] (strain carrying kanamycin resistance gene, patch with kanamycin and Fe-QA), “retarded; also recorded: impacted”; in experiment [3] (wildtype C. jejuni (no kanamycin resistance gene), patch with Fe-QA alone), “not affected”; in experiment [3] (wildtype C. jejuni, patch with kanamycin and Fe-QA), “impacted”. The “biofilm on human teeth (red CEPLAC staining)” value in experiment [5] was “no teeth stained red”. In addition, the “state of acne after treatment for 30 days” value in experiment [6] (ferric quinate solution 340 μM once each day) is “completely healed”. In experiment [6] (ferric quinate solution 340 μM once each day for 30 days), the “recurrence of acne after discontinuation of treatment for over one year” value is given as “did not recur”.

(Values after patent US10327423B2, “Antimicrobial compounds and compositions, and uses thereof” (Akeso Biomedical, Inc., priority 2014, dated 2019).)
